We go through one compound from ChEMBL document CHEMBL2074505, “Imaging reversal of multidrug resistance in living mice with bioluminescence: MDR1 P-glycoprotein transports coelenterazine” (Proc Natl Acad Sci U S A, 2004).

Molecules are shown by their SMILES.

The assay addresses ATP-dependent translocase ABCB1 (Homo sapiens, UniProt P08183). Kind of assay: TP_TRANSPORTER: efflux in KB 8-5-11 Rluc cells. The class given is functional, cell-based.

Sequence of ATP-dependent translocase ABCB1 (P08183 whole entry): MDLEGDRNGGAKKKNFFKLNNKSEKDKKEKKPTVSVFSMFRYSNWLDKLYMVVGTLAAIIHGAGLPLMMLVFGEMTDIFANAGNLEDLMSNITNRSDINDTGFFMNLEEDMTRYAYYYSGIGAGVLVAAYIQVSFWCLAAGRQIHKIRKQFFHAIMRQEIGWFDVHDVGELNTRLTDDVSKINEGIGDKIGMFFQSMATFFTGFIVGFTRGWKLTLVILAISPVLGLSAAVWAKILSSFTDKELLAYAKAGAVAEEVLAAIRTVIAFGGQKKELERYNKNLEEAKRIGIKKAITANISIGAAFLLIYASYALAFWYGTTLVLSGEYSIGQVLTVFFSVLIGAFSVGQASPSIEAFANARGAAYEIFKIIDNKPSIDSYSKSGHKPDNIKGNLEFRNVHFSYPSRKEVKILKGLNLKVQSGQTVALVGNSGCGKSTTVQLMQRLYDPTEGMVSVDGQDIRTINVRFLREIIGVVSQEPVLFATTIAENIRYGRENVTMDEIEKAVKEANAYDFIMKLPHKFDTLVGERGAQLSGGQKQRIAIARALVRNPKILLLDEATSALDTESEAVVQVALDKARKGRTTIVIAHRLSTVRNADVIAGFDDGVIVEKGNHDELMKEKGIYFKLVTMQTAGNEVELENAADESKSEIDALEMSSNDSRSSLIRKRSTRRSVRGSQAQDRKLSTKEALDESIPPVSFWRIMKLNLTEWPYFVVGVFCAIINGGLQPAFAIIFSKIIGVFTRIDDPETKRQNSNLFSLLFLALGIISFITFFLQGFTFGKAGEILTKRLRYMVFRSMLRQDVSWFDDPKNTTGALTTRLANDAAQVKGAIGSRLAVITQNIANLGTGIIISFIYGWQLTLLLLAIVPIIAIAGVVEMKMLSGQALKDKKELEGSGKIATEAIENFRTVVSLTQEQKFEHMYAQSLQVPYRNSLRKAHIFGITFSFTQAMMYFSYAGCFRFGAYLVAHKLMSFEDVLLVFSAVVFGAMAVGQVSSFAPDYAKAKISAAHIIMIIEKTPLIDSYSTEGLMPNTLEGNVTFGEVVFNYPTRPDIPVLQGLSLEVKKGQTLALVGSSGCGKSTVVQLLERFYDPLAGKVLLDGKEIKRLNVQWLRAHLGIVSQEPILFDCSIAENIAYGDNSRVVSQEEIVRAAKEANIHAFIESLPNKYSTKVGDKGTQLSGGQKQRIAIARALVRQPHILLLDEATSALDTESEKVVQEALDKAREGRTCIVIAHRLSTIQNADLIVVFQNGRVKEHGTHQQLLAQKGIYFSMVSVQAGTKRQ

Consider `Oc1ccc(Cc2nc3c(Cc4ccccc4)nc(-c4ccc(O)cc4)cn3c2O)cc1` [COELENTERAZINE], for which the EC50 was 147 nM.
